Reference: ChEMBL document CHEMBL2074367, “Characterization of a novel bisacridone and comparison with PSC 833 as a potent and poorly reversible modulator of P-glycoprotein” (Mol Pharmacol, 1997)

Target: ATP-dependent translocase ABCB1 (Homo sapiens, UniProt P08183)
Assay: TP_TRANSPORTER: increase in Vinblastine intracellular accumulation (Vinblastine: 0.0375 uM, PBA: 1 uM) in KB8-5 cells
Assay type: functional, cell-based
Conditions: kb8-5, 1 µM

ATP-dependent translocase ABCB1, sequence (P08183 whole entry): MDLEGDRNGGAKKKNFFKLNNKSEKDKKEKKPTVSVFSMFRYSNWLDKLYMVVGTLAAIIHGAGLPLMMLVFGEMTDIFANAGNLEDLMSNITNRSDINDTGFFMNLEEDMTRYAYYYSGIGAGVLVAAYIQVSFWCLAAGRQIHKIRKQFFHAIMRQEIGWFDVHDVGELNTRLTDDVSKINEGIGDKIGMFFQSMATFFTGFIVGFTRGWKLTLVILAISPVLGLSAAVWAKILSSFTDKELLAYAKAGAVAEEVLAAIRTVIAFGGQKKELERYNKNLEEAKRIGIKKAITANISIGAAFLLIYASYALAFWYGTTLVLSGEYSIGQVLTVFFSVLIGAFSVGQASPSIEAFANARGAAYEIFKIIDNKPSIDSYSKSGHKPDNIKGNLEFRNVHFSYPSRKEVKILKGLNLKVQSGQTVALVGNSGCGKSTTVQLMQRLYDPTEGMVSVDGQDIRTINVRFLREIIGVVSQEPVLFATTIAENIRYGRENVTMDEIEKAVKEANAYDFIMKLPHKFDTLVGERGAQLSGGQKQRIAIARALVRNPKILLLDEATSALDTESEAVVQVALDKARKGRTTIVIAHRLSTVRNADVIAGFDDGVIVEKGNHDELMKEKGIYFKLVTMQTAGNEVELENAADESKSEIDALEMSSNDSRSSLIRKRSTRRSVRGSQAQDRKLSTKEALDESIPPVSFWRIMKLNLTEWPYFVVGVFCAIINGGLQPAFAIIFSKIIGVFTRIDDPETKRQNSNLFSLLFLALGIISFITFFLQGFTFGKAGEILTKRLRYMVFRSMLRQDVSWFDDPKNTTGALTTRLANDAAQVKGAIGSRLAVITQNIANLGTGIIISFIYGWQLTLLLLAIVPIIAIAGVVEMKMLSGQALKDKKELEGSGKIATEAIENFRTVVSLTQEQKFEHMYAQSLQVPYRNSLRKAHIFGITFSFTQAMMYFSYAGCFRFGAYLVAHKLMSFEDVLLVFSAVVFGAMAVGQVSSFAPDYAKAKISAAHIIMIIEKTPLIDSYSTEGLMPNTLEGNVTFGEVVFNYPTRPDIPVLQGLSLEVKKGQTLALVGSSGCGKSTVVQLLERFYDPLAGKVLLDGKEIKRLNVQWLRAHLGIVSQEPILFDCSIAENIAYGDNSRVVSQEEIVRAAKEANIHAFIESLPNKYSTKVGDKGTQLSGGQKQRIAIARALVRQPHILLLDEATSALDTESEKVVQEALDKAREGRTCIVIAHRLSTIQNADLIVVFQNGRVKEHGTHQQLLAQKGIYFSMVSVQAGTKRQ

With O=c1c2ccccc2n(CCCn2c3ccccc3c(=O)c3ccccc32)c2ccccc12 the Inhibition was “inhibitor [800-900 % inhibition]”.
